For this series, the system named is Liver microsomes. Description: Drug metabolism in human liver microsomes at 20 mM. The class given is ADME, Microsome. Conditions: 20000 µM. A general note: Liver microsomes are vesicles of endoplasmic reticulum, rich in cytochrome P450 enzymes; call rule not given here.

Turning to `CN(Cc1ccccc1)C(=O)[C@@H](NC(=O)c1cc2cc(NC(=O)c3ccccc3-c3ccc(C(F)(F)F)cc3)ccc2n1C)c1ccccc1` [DIRLOTAPIDE], the Drug metabolism result is on record as “Active”.

For the origin of these results see ChEMBL document CHEMBL1932919, “Dirlotapide as a model substrate to refine structure-based drug design strategies on CYP3A4-catalyzed metabolism” (Bioorg Med Chem Lett, 2012).
